{"source": "patent US20250230193A1", "about": "“CYCLIC COMPOUND HAVING SELECTIVE KRAS INHIBITORY EFFECT ON HRAS AND NRAS” (CHUGAI SEIYAKU KABUSHIKI KAISHA, priority 2022, published 2025)", "key": {"[1]": {"molecular_target": "GDP-bound NRAS wild-type protein (Homo sapiens, UniProt P01111)", "sequence (P01111 whole entry)": "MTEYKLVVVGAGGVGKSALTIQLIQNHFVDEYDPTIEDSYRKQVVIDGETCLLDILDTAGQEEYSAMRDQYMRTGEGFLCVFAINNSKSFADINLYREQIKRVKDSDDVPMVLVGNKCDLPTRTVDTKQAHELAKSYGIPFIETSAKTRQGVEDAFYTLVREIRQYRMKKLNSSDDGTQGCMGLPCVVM", "test": "Binding to NRAS by surface plasmon resonance (SPR), Single Cycle Kinetics", "settings": "SPR; for NRAS/KRAS (ratio of KD value with respect to NRAS to KD value with respect to KRAS): GDP-bound NRAS wild-type vs GDP-bound KRAS wild-type; for NRAS/KRAS (ratio of KD value with respect to GDP-bound NRAS wild-type protein to KD value with respect to KRAS): GDP-bound wild-type proteins"}, "[2]": {"molecular_target": "GDP-bound HRAS wild-type protein (Homo sapiens, UniProt P01112)", "sequence (P01112 whole entry)": "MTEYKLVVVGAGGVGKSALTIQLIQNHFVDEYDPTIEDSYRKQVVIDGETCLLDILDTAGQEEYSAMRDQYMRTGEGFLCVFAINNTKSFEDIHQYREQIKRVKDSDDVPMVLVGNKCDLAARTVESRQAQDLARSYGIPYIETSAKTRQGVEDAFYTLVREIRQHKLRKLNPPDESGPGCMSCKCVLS", "test": "Binding to HRAS by surface plasmon resonance (SPR), Single Cycle Kinetics", "settings": "SPR; for HRAS/KRAS (ratio of KD value with respect to HRAS to KD value with respect to KRAS): GDP-bound HRAS wild-type vs GDP-bound KRAS wild-type; for HRAS/KRAS (ratio of KD value with respect to GDP-bound HRAS wild-type protein to KD value with respect to KRAS): GDP-bound wild-type proteins"}}, "note": "*1 amine or outer side, *2 acyl side, *3 side chain or, on linkers, in order; H or OH if unused. Where a SMILES comes first, the peptide text is derived from it. Bridges are numbered along the chain shown (N, C = ends). [ ]: non-standard residue; d: D form. The star is where a group is joined. hPhe(3-Cl-4-CF3) = N[C@@H](CCc1ccc(C(F)(F)F)c(Cl)c1)C(=O)O; X27 = Cc1ccc(C[C@@H](C(=O)[*:2])N(CC2CCCCC2)[*:1])cc1; NMeGly(cPent) = CN[C@H](C(=O)O)C1CCCC1; NMeD = CN[C@@H](CC(=O)O)C(=O)O; NMeL = CN[C@@H](CC(C)C)C(=O)O; Morpholide = C1CN(*)CCO1; Ac5c = NC1(C(=O)O)CCCC1; Sar = CNCC(=O)O"}
{"compound": "CC[C@H](C)[C@@H]1NC(=O)[C@H](CC(C)C)N(C)C(=O)C[C@@H](C(=O)N2CCOCC2)N(C)C(=O)[C@H](C2CCCC2)N(C)C(=O)C2(CCC2)NC(=O)[C@@H]2[C@@H](OCC3CC3)CCN2C(=O)[C@H](CCc2cc(F)c(C(F)(F)F)c(F)c2)NC(=O)CN(C)C(=O)[C@H](Cc2ccc(C(F)(F)F)cc2)N2CCCCC[C@@H](C2=O)N(C)C(=O)CN(C)C1=O", "note": "[PP1010]", "values": [{"measurement": "NRAS/KRAS (ratio of KD value with respect to NRAS to KD value with respect to KRAS)", "setting": "[1]; KD ratio", "value": "B (a compound having 3 or more and less than 10 is denoted as B)"}, {"measurement": "HRAS/KRAS (ratio of KD value with respect to HRAS to KD value with respect to KRAS)", "setting": "[2]; KD ratio", "value": "B (a compound having 3 or more and less than 10 is denoted as B)"}]}
{"compound": "CCC[C@H]1C(=O)N[C@@H]([C@@H](C)CC)C(=O)N(C)CC(=O)N(C)[C@H]2C/C=C\\CCN(C2=O)[C@@H](Cc2ccc(C)cc2)C(=O)N(C)CC(=O)N[C@@H](CCc2ccc(C(F)(F)F)c(OC)c2)C(=O)N2CC3(CC3)C[C@H]2C(=O)NC2(CC(C)(C)C2)C(=O)N(C)[C@@H](CC(C)C)C(=O)N(C)[C@H](C(=O)N(C)C)CC(=O)N1C", "note": "[PP3013]", "values": [{"measurement": "NRAS/KRAS (ratio of KD value with respect to GDP-bound NRAS wild-type protein to KD value with respect to KRAS)", "setting": "[1]; KD ratio NRAS/KRAS", "value": "AA (a compound having 20 or more is denoted as AA)"}, {"measurement": "HRAS/KRAS (ratio of KD value with respect to GDP-bound HRAS wild-type protein to KD value with respect to KRAS)", "setting": "[2]; KD ratio HRAS/KRAS", "value": "B (a compound having 3 or more and less than 10 is denoted as B)"}]}
{"compound": "CCC[C@H]1C(=O)N[C@@H]([C@@H](C)CC)C(=O)N2CCC[C@H]2C(=O)N(C)[C@H]2C/C=C\\CCN(C2=O)[C@@H](CC2CCC(F)(F)CC2)C(=O)N(C)CC(=O)N[C@@H](CCc2ccc(C(F)(F)F)c(OC)c2)C(=O)N2C[C@H](OCC)C[C@H]2C(=O)N(C)C2(CCC2)C(=O)N(C)[C@@H](C2CCCC2)C(=O)N(C)[C@H](C(=O)N(C)C)CC(=O)N1C", "note": "[PP2356]", "values": [{"measurement": "NRAS/KRAS (ratio of KD value with respect to NRAS to KD value with respect to KRAS)", "setting": "[1]", "value": "A (a compound having 10 or more and less than 20 is denoted as A)"}, {"measurement": "HRAS/KRAS (ratio of KD value with respect to HRAS to KD value with respect to KRAS)", "setting": "[2]", "value": "A (a compound having 10 or more and less than 20 is denoted as A)"}]}
{"compound": "CCO[C@@H]1C[C@H]2C(=O)NC3(CCC3)C(=O)N(C)[C@@H](C3CCCC3)C(=O)N(CC)[C@H](C(=O)N3CCOCC3)CC(=O)N(C)[C@@H](Cc3ccccc3)C(=O)N[C@@H]([C@@H](C)CC)C(=O)N(C)CC(=O)N(C)[C@H]3CCCCCN(C3=O)[C@@H](Cc3ccc(C(F)(F)F)cc3)C(=O)N(C)CC(=O)N[C@@H](CCc3cc(F)c(C(F)(F)F)c(F)c3)C(=O)N2C1", "note": "[PP0950]", "values": [{"measurement": "NRAS/KRAS (ratio of KD value with respect to NRAS to KD value with respect to KRAS)", "setting": "[1]; KD ratio", "value": "A (a compound having 10 or more and less than 20 is denoted as A)"}, {"measurement": "HRAS/KRAS (ratio of KD value with respect to HRAS to KD value with respect to KRAS)", "setting": "[2]; KD ratio", "value": "B (a compound having 3 or more and less than 10 is denoted as B)"}]}
{"compound": "CCO[C@@H]1C[C@H]2C(=O)NC3(CCC3)C(=O)N(C)[C@@H](C3CCCC3)C(=O)N(C)[C@H](C(=O)N3CCOCC3)CC(=O)N(C)[C@@H](CC)C(=O)N[C@@H]([C@@H](C)CC)C(=O)N(C)CC(=O)N(C)[C@H]3C[C@@H](C)CCN(C3=O)[C@@H](Cc3ccc(C(F)(F)F)cc3)C(=O)N(C)CC(=O)N[C@@H](CCc3cc(F)c(C(F)(F)F)c(F)c3)C(=O)N2C1", "note": "[PP1027]", "values": [{"measurement": "NRAS/KRAS (ratio of KD value with respect to NRAS to KD value with respect to KRAS)", "setting": "[1]; KD ratio", "value": "C (A compound having a KD ratio of 0.1 or more and less than 3 is denoted as C)"}, {"measurement": "HRAS/KRAS (ratio of KD value with respect to HRAS to KD value with respect to KRAS)", "setting": "[2]; KD ratio", "value": "B (a compound having 3 or more and less than 10 is denoted as B)"}]}
{"compound": "CC[C@H](C)[C@@H]1NC(=O)[C@H](CC(C)C)N(C)C(=O)C[C@@H](C(=O)N2CCOCC2)N(C)C(=O)[C@H](C2CCCC2)N(C)C(=O)C2(CCCC2)NC(=O)[C@@H]2CCCN2C(=O)[C@H](CCc2ccc(C(F)(F)F)c(Cl)c2)NC(=O)CN(C)C(=O)[C@H](Cc2ccc(C)cc2)N(CC2CCCCC2)C(=O)CN(C)C(=O)CN(C)C1=O", "note": "[PP0097] ([NMeL]I[Sar][Sar][X27][Sar][hPhe(3-Cl-4-CF3)]P[Ac5c][NMeGly(cPent)][NMeD]-Morpholide; lactam N-11)", "values": [{"measurement": "NRAS/KRAS (ratio of KD for GDP-bound NRAS wild-type to KD for KRAS)", "setting": "[1]; KD ratio NRAS/KRAS", "value": "C (A compound having a KD ratio of 0.1 or more and less than 3 is denoted as C)"}, {"measurement": "HRAS/KRAS (ratio of KD for GDP-bound HRAS wild-type to KD for KRAS)", "setting": "[2]; KD ratio HRAS/KRAS", "value": "C (A compound having a KD ratio of 0.1 or more and less than 3 is denoted as C)"}]}
{"compound": "CCO[C@@H]1C[C@H]2C(=O)NC3(CC(C)(C)C3)C(=O)N(C)[C@@H](C(CC)CC)C(=O)N(C)[C@H](C(=O)N(C)C)CC(=O)N(C)[C@H]3CCCC/C=C/c4ccc(cc4)C[C@@H](C(=O)N(C)CC(=O)N[C@@H](CCc4cc(F)c(C(F)(F)F)c(F)c4)C(=O)N2C1)N1CC/C=C\\C[C@@H](C1=O)N(C)C(=O)CN(C)C(=O)[C@H]([C@@H](C)CC)NC3=O", "note": "[PP3044]", "values": [{"measurement": "NRAS/KRAS (ratio of KD value with respect to GDP-bound NRAS wild-type protein to KD value with respect to KRAS)", "setting": "[1]; KD ratio NRAS/KRAS", "value": "AA (a compound having 20 or more is denoted as AA)"}, {"measurement": "HRAS/KRAS (ratio of KD value with respect to GDP-bound HRAS wild-type protein to KD value with respect to KRAS)", "setting": "[2]; KD ratio HRAS/KRAS", "value": "A (a compound having 10 or more and less than 20 is denoted as A)"}]}
